The values that follow come from US8771983B2, “Method and kit for expressing protein under regulation of the expression from repeated sequence formed by gene amplification, and transformant” (National University of Corporation Hiroshima University, priority 2004, dated 2014).

The subject of series [1] is expression of d2EGFP in human colon cancer cell COLO 320DM cells. In words: Level of expression of d2EGFP by cell sorter after selection with stepwise increasing Blasticidin concentrations (Example 3). To be noted: 1 μg/ml Doxycycline. Format: cell-based. As to the method: (§1) Fluorescence intensity of these cells were measured by using a cell sorter. The measurement was carried out by sorting 20,000 cells by setting living cells at a gate. The cell sorter used was made by Becton Dickinson, and operated under conditions as described in the manual attached thereto.
(§2) In this method for detecting the fluorescence intensity, detection limit was 1, and all fluorescence intensities of 1 or less would be detected as 1. In view of this, a product of a ratio (cell %) of cells of fluorescence intensities of 2 or more in all living cells (10,000 cells) and an average of the fluorescence intensities of the cells having fluorescence intensities of 2 or more was calculated out for each experimental plot. This product is referred to as “accumulated fluorescence intensity” hereinafter and in later Examples and shown in boxed letter in the figures.
A plasmid (pSFVdhfr/d2EGFP) was transfected into human colon cancer cell COLO 320DM cells by lipofection. The plasmid (pSFVdhfr/d2EGFP) was a plasmid having (a) IR and MAR derived from human DHFR gene locus, (b) Blasticidin tolerance gene, and (c) d2EGFP gene that was under control of TRE-promoter (Tetracycline inducing promoter). The transformed cells were selected with 5 μg/ml of Blasticidin (Funakoshi Corp.) thereby obtaining many transformed clones. After the clones were mixed, the culturing was continued. […] Cells select with the respective Blasticidin concentrations were treated with 1 μg/ml of Doxycycline (Clontech Laboratories Inc.) added to the media so as to activate TRE-promoter and thereby inducing expression of d2EGFP (whose half-life is much shorter than general EGFP.

Series [2] relates to expression of d2EGFP in Tet-ON cells (COLO 320DM) transfected with pSFVdhfr/d2EGFP. In words: Level of expression of d2EGFP by cell sorter in HSR and DM clones of Tet-ON cells with 5-aza (Example 7). Format: cell-based, human. To be noted: polyclonal population of Tet-ON cells with pSFVdhfr/d2EGFP; 5 μg/ml of Doxycycline. Here is the method:
as §1, §2
By lipofection, the pTet-ON plasmid (Clontech Laboratories Inc.) having Tet-ON gene encoding a transcription activating factor (Tet-ON protein) for promoting TRE-promoter was transfected into human colon cancer COLO 320DM. Transformed cells (hereinafter referred to as “Tet-ON cells”) which stably expressed Tet-ON protein, were selected with Hygromycin.
Next, the pSFVdhfr/d2EGFP plasmid was transfected into the Tet-ON cells by lipofection. The cells thus obtained were selected with 5 μg/ml of Blasticidin for approximately 3 weeks, thereby obtaining a polyclonal population of the stable transformed cells.
The expression of d2EGFP was induced in the polyclonal population by activating TRE-promoter by adding 5 μg/ml of Doxycycline (Clontech Laboratories Inc.) in the medium. FIG. 9 illustrates a result of analysis of the level of the expression of d2EGFP in this case by using a cell sorter. In FIG. 9, the value in parenthesis is an average of fluorescence intensities (i.e., average fluorescence intensity), and boxed value is an accumulated fluorescence intensity. Based on the result of FIG. 9, it was confirmed that the polyclonal population was a population for expressing d2EGFP (average fluorescence intensity: 6.25, accumulated fluorescence intensity: 536).
From the polyclonal population, given 30 clones were obtained by a limiting dilution method that was carried out by inoculating a clone to 6 well plates with such a low cell concentration of 30 cells/ml, and incubating the plates for 10 days to 2 weeks thereby obtaining colonies thereon.
From among the clones, 4 clones having high levels of expression of d2EGFP (Clone 4, Clone 5, Clone 6, and Clone 9) were selected by fluorescence microscopic observation. Mitotic chromosome samples of the 4 clones were prepared. By FISH method, detection for a base sequence derived from the transfected pSFVdhfr/d2EGFP plasmid was carried out. The preparation of mitotic chromosome samples and the FISH method were carried out as described in Shimizu, N., Kanda, T., and Wahl, G. M. Selective capture of acentric fragments by micronuclei provides a rapid method of purifying extrachromosomally amplified DNA. Nature Genet., 12: 65-71, 1996.
For 4 clones, induction with Doxycycline (Clontech Laboratories Inc.; 1 μg/ml) was carried out and 5-aza (0 μM, 1 μM or 3 μM) was added in the medium. After 1 week culturing, the level of expression of d2EGFP in each clone was analyzed by using a cell sorter.

Series [3] deals with expression of d2EGFP in human colon cancer COLO 320DM cells. As to the kind of experiment: Change over time of d2EGFP expression after induction with Doxycycline in cells cotransfected with pSFVdhfr/d2EGFP and pTet-ON plasmid (Example 8). Format: cell-based. To be noted: polyclonal population. As to the method:
as §1, §2
An equimolar mixture of a plasmid (pSFVdhfr/d2EGFP) and pTet-ON plasmid (Clontech Laboratories Inc.) was simultaneously transfected into human colon cancer COLO 320DM cells. The plasmid (pSFVdhfr/d2EGFP) was a plasmid having (a) IR and MAR derived from human DHFR gene locus, (b) Blasticidin tolerance gene, and (c) d2EGFP gene that was under control of TRE-promoter (Tetracycline inducing promoter). Meanwhile, the pTet-ON plasmid was a plasmid having Tet-ON gene encoding the transcription activating factor (Tet-ON protein) of TRE-promoter. The cells were selected with 5 μg/ml of Blasticidin thereby obtaining a polyclonal population of transformed cells. TRE-promoter was activated by adding 1 μg/ml of Doxycycline (Clontech Laboratories Inc.) in the medium of a cell culturing solution of the polyclonal population, thereby inducing the expression of d2EGFP.
Next, after the expression of d2EGFP was induced by Doxycycline, the level of the expression of d2EGFP was analyzed by using a cell sorter so as to find a change in the level of the expression of d2EGFP over time. […] In FIG. 16, the value in parenthesis is an average of fluorescence intensities (i.e., average fluorescence intensity), and boxed value is an accumulated fluorescence intensity.
FIG. 17 illustrates a graph plotting the averages (i.e., average fluorescence intensities: indicated by filled circles in FIG. 17) and living cell ratio (a ratio of living cells over total cell number: indicated by open circles) of the level of the expression of d2EGFP against time. […] The level was maintained high even after two weeks lapsed (labeled as “2wk” in FIG. 17).

Series [4] relates to expression of d2EGFP in human colon cancer cells COLO 320DM cells. In words: Level of expression of d2EGFP after treatment of cells with 5-aza-2′-deoxycytidine and/or Trichostatin A (Example 6). Format: cell-based. Here is the method:
as §1, §2
A mixture of a plasmid (pSFVdhfr/d2EGFP) and the plasmid DNA having the Aves-derived HS4 insulator sequence was transfected to human colon cancer cells COLO 320DM cells by lipofection. The plasmid (pSFVdhfr/d2EGFP) was a plasmid having (a) IR and MAR derived from human DHFR gene locus, (b) Blasticidin tolerance gene, and (c) d2EGFP gene that was under control of TRE-promoter (Tetracycline inducing promoter). The plasmid DNA having the Aves-derived HS4 insulator sequence was identical with the one described in Example 2. From 2 days later since the gene transfection, the cells were selected with 5 μg/ml of Blasticidin (Funakoshi Corp.). After 3 to 4 weeks, many colonies of transformed cells were obtained.
Into a culture solution of the transformed cells, of 1 μM or 3 μM of 5-aza-2′ deoxycytidine (hereinafter referred to as “5-aza” where appropriate; Sigma) was added. Thereby, the cells were treated with 5-aza for 3 days. For comparison purposes, 20 nM of Trichostatin A (hereinafter referred to as “TSA” where appropriate; histone deacetylation inhibitor, Sigma), which is known as a material for increasing gene expression from the repeated sequence, was added to some culture solutions of the transformed cells and analyzed.

The mark [5] stands for this setting: pSFVdhfr/d2EGFP cells selected with 5 μg/ml of Blasticidin.
The mark [6] stands for this setting: pSFVdhfr/d2EGFP cells selected with 40 μg/ml of Blasticidin.
Setting [7] is: pSFVdhfr/d2EGFP cells selected with 160 μg/ml of Blasticidin.
Where [8] appears, read: pSFVdhfr/d2EGFP cells selected with 320 μg/ml of Blasticidin.
[9] abbreviates: fifteen hours after the addition of Doxycycline (1 μg/ml).
[10] abbreviates: forty eight hours (2 days) after the addition of Doxycycline (1 μg/ml).
Where [11] appears, read: one hour after the addition of Doxycycline (1 μg/ml).
Where [12] appears, read: one hundred twenty hours (5 days) after the addition of Doxycycline (1 μg/ml).
[13] abbreviates: six hours after the addition of Doxycycline (1 μg/ml).
The mark [14] stands for this setting: three hours after the addition of Doxycycline (1 μg/ml).
Setting [15] is: twenty four hours after the addition of Doxycycline (1 μg/ml).
[16] abbreviates: two weeks after the addition of Doxycycline (1 μg/ml).

Consider `CN(CC[C@H](N)CC(=O)N[C@H]1C=C[C@H](n2ccc(N)nc2=O)O[C@@H]1C(=O)O)C(=N)N` [Blasticidin], for which the average fluorescence intensity in series [1] (pSFVdhfr/d2EGFP cells selected with 10 ng/ml of Blasticidin) turned out to be 3.77; in series [1] (setting [5]) it was 2.94; in series [1] (setting [6]), 6.67; in series [1] (setting [7]), 9.47; in series [1] (setting [8]) it was 18.55. The accumulated fluorescence intensity was found to be 222 in series [1] (setting [5]), 640 in series [1] (setting [6]), 929 in series [1] (setting [7]) and 1850 in series [1] (setting [8]).

Turning to `C[C@H]1c2cccc(O)c2C(=O)C2=C(O)[C@]3(O)C(=O)C(C(N)=O)=C(O)[C@@H](N(C)C)[C@@H]3[C@@H](O)[C@@H]21` [Doxycycline], the accumulated fluorescence intensity in series [2] worked out at 536; in series [3] (setting [9]) it was 841; in series [3] (setting [10]), 5320; in series [3] (setting [11]), 216; in series [3] (setting [12]), 3880; in series [3] (setting [13]), 341. In addition, the accumulated fluorescence intensity amounted to 293 in series [3] (setting [14]), 2800 in series [3] (setting [15]) and 3500 in series [3] (setting [16]). In addition, the average fluorescence intensity in series [2] stood at 6.25; in series [3] (setting [9]), 9.24; in series [3] (setting [10]), 53.97; in series [3] (setting [11]), 2.99; in series [3] (setting [12]) it was 39.56; in series [3] (setting [13]), 4.22. Moreover, the average fluorescence intensity came to 3.72 in series [3] (setting [14]), 28.77 in series [3] (setting [15]) and 35.32 in series [3] (setting [16]). Further, the “survival ratio of the cells (living cell ratio)” value in series [3] (expression of d2EGFP induced by Doxycycline, up to two weeks) is “no decrease in the survival ratio”.

In series [4] (20 nM of TSA), `CC(/C=C/C(=O)NO)=C\[C@@H](C)C(=O)c1ccc(N(C)C)cc1` [TSA, Trichostatin A] displayed an accumulated fluorescence intensity of 228 and an average fluorescence intensity of 3.02. The “effect on the expression of the target protein” value in series [4] (20 nM of TSA versus cells before treatment) was “cannot increase the expression of the target protein”.
